Experiments:
[1] = system: MeCP2 knockout mice; assay: Nocturnal activity measurements; assay type: in vivo; settings: MeCP2 knockout mice after 6 weeks; nocturnal infrared beam crossing
Description: Spontaneous motor activity is measured by using an infrared beam-activated movement-monitoring chamber (Opto-Varimax-MiniA; Columbus Instruments, Columbus, Ohio). For each experiment, a mouse is placed in the chamber at least 3 h before recordings started. Movement is monitored during the normal 12-h dark cycle (7 p.m. to 7 a.m.). One dark cycle per animal per time point is collected.
MeCP2−/y mice develop Rett-like symptoms beginning at 4-6 weeks of age when they progressively become lethargic, develop gait ataxia and […] (Chen et al., 2001). Baseline locomotor activity is also recorded in mice after 6 weeks by counting nocturnal infrared beam crossing events within a caged area.

[2] = system: heterozygous Shank3-deficient mice; assay: Shank3-deficient mice: olfactory habituation/dishabituation; assay type: in vivo; settings: all 4 groups
Description: 1 to 3 month old wild-type and heterozygous Shank3-deficient mice are divided into 4 treatment groups: placebo treated wild-type, placebo treated Shank3-deficient group and two Shank3-deficient cG-2-AllylP treated groups. The animals are given placebo (water) or cG-2-AllylP formulated in water administered orally, b.i.d for 14 days. cG-2-AllylP is administered at two doses: 15 or 60 mg/kg.
Olfactory habituation/dishabituation testing is conducted in male and female mice for each group. The methodology is as previously described (Silverman et al 2010, Yang et al 2009 and Silverman et al 2010). Non-social and social odors are presented on a series of cotton swabs inserted into the home cage sequentially, each for 2 min, in the following order; water, water, water (distilled water); almond, almond, almond (1:100 dilution almond extract); banana, banana, banana (1:100 dilution artificial banana flavouring); social 1, social 1, social 1 (swiped from the bottom of a cage housing unfamiliar sex-matched B6 mice); and social 2, social 2, social 2 (swiped from the bottom of a second cage housing a different group of unfamiliar sex-matched 129/SvImJ mice). One-way repeated measures ANOVA is performed within each treatment group for each set of habituation events and each dishabituation event, followed by a Tukey post hoc test.

[3] = system: MeCP2 deficient mice; assay: Survival of MeCP2 deficient mice (Rett Syndrome model); settings: for survival: MeCP2 deficient mice
Description: We treat hemizygous MeCP2(1lox) male mice with 20 mg/kg/day of cG-2-AllylP or saline, (0.01% BSA, n=15 per group in survival experiment and n=20 in the LTP experiment). The treatments are administered intraperitoneally from 4 weeks after birth. For the survival experiments the treatment is maintained through the course of the experiment. For the LTP experiment the mice are treated until week 9 when they are used for slice preparation.
MeCP2 deficient mutant mice develop RTT symptoms at about 4-6 weeks of age and […] (Chen et al., 2001. Nat Genet 27: 327-331). We compare the survival of the wild type controls and the MeCP2 deficient animals in vehicle- and cG-2-AllylP-treated groups. Survival is measured weekly from start of treatment (4 weeks) and used to produce Kaplan-Meier survival curves to show the proportion of mice that survive (y axis) at each weekly interval (x axis).
For the survival measurements, the nocturnal activity analysis and the immunoblot analysis, cG-2-AllylP supplied by Neuren Pharmaceuticals Limited is administered daily via intra-peritoneal injections (20 mg/kg, vehicle=saline, 0.01% BSA). The treatment starts at PI 5 and is maintained throughout the course of the experiments. For intracellular physiology experiments, the mice are injected daily with cG-2-AllylP (20 mg/kg body weight, vehicle=saline, 0.01% BSA) for 2 weeks, from P15 to P28-P32 when they are used for acute slice preparation. For optical imaging experiments, mice are injected with cG-2-AllylP (20 mg/kg body weight, vehicle=saline, 0.01% BSA) daily from the day of the lid suture to the day of imaging.
Therefore, we administer cG-2-AllylP orally to MeCP2 deficient mice. Briefly, an aqueous solution or other composition containing a pharmaceutically effective amount of cG-2-AllylP (20 or 80 mg/kg per animal) is administered daily.

[4] = system: rats exposed to hypoxic-ischemic injury (HI); assay: Hypoxic-ischemic injury (HI), modified Levine model, tissue damage score; assay type: in vivo, Wistar rats
Source text: Adult rats (Wistar, 280-310 g, male) were used. The modified Levine model preparation and experimental procedures were used (Rice et al, 1981, Ann. Neurol. :9: 131-141; Guan et al J., 1993, Cereb. Blood Flow Metab.: 13(4): 609-16). These procedures in brief, consist of an HI injury induced by unilateral carotid artery ligation followed by inhalational asphyxia in the animals with an implanted lateral ventricular cannula. A guide cannula was stereotaxically placed on the top of the dura 1.3 mm to the right of the mid-line and 7.3 mm anterior to the interaural zero plane under halothane anaesthesia. The right carotid artery was double ligated two days after the cannulation. After 1 hour recovery from the anaesthesia, each of the rats were placed in an incubator where the humidity (90±5%) and temperature (31°±0.5° C.) were controlled for another hour, then exposed to hypoxia (6% oxygen) for 10 min. […]
Coronal sections 8 μm in thickness were cut from the striatum, cerebral cortex and hippocampus and were stained with thionin and acid fuchsin. The histological outcome was assessed at three levels: (1) the mid level of the striatum, (2) where the completed hippocampus first appeared and (3) the level where the ventral horn of the hippocampus just appears. The severity of tissue damage was scored in the striatum, cortex and the CA1-2, CA3, CA4 and dentate gyrus of the hippocampus. […]

C=CC[C@]12CCCN1C(=O)CNC2=O [cG-2-AllylP, (8aS)-Allyl-hexahydropyrrolo[1,2-a]pyrazine-1,4-dione]
locomotor activity levels [1]: elevates these levels
olfactory habituation [2]: normal levels of habituation
life expectancy ([3]; MeCP2-/y mice, 20 mg/kg daily intra-peritoneal from P15): increase in life expectancy
survival ([3]; 20 mg/kg/day intraperitoneally from 4 weeks): survive substantially longer than saline-treated mice
survival ([3]; oral, 20 or 80 mg/kg daily): survival is increased substantially
safety concerns ([3]; mecp2 mice, 20 mg/kg/day intraperitoneally): No safety concerns are raised
tissue damage score ([4]; 2 ng icv 2 hours after HI, each brain region, vs vehicle p<0.001): significantly reduced the tissue damage in each brain region examined
neural damage after hypoxia/ischemia ([4]; 2, 4, 20, 100 ng icv, all other sites and all other doses): lessened the neural damage effects of hypoxia/ischemia

Source: patent US11197856B2, “Bicyclic compounds and methods for their use in treating autism” (priority 2013, dated 2021)
